These results are taken from patent US20090011410A1, “METHOD FOR TAILORING ADMINISTRATION OF DRUGS BY QUANTITATION OF MRNA” (priority 2004, published 2009).

“Also recorded” adds a separate entry of the source.

For one test, the system named is BAX mRNA. The experiment in a line: drug-induced BAX mRNA expression in whole blood of leukemia and lymphoma patients. In kind it is cell-based, human. The settings on record: leukemic lymphoma patient 2, 2 hours at 37° C., drug concentrations (FIG. 3).
Another test has as its system PUMA mRNA. The experiment in a line: drug-induced PUMA mRNA expression in whole blood of leukemia and lymphoma patients. Conditions: 2 hours at 37° C. The format is cell-based, human.
The next test deals with p21 mRNA, Jurkat cells. The experiment in a line: etoposide-induced p21 mRNA expression in cultured Jurkat cells. The format is cell-based, human. Conditions: even when 100 μM was used (FIG. 1).
The subject of test [1] is leukemic non-Hodgkin's malignant lymphoma patient. Put plainly: clinical course of patient 2 (leukemic non-Hodgkin's lymphoma). In kind it is in vivo, human. The settings on record: patient 2 with continued thrombocytopenia (FIG. 4).
A further test relates to NOXA mRNA. Put plainly: drug-induced NOXA mRNA expression in whole blood of healthy adults (SYBR green PCR screen). Conditions: 20 μM BLM or 100 μM VP-16, 4 hours at 37° C.; degree less than PUMA (FIG. 6). In kind it is cell-based, human. As to the method:
In 8-well strip microtubes, 1.4 μl of 50× concentrations of drugs or controls (phosphate buffered saline (PBS) or DMSO) were added, and stored at −20° C. until use. […] Seventy μl of fresh heparinized whole blood was added into each well in triplicate, and incubated at 37° C. for 2-8 hours with the cap closed. For radiation treatment, blood was stimulated at designated doses using cesium-137. After each treatment, 50 μl of whole blood was transferred to filterplates as described below.
The mRNA and cDNA were prepared from whole blood. In brief, home-made 96-well filterplates were placed over collection plates, and 150 μl 5 mM Tris, pH 7.4, was applied. Following centrifugation at 120×g for 1 min at 4° C., 50 μl of blood samples were applied to each well and immediately centrifuged at 120×g for 2 min at 4° C., followed by washing of each well with 300 μl PBS once with centrifugation at 2000×g for 5 min at 4° C. […] The Ct was determined by analytical software (SDS, ABI). […]
Quantitation of various mRNAs was conducted using the following method. […]

In the next test the test system is human whole blood. The experiment in a line: DNA fragmentation (apoptosis) in whole blood by agarose gel electrophoresis. In kind it is cell-based. The settings on record: 1 day of incubation, 100 μM VP-16, 20 μM BLM (FIG. 5 inset).

Description for BAX mRNA: For human experiments, blood aliquots were stimulated with various anti-cancer drugs at 37° C. for 2 hours, then both p21 and BAX mRNA were measured. The anti-cancer drugs used in this study were clinical drugs, and the concentration of each drug was adjusted to typical blood levels 3-6 hours after intravenous administration.
The mRNA and cDNA were prepared from whole blood. In brief, home-made 96-well filterplates were placed over collection plates, and 150 μl 5 mM Tris, pH 7.4, was applied. Following centrifugation at 120×g for 1 min at 4° C., 50 μl of blood samples were applied to each well and immediately centrifuged at 120×g for 2 min at 4° C., followed by washing of each well with 300 μl PBS once with centrifugation at 2000×g for 5 min at 4° C. Then, 60 μl stock lysis buffer, containing for example 0.5% N-Lauroylsarcosine, 4×SSC, 10 mM Tris HCl, pH 7.4, 1 mM EDTA, 0.1% IGEPAL CA-630, and 1.791 M guanidine thiocyanate, supplemented with 1% 2-mercaptoethanol (Bio Rad, Hercules, Calif., USA), 0.5 mg/ml proteinase K (Pierce, Rockford, Ill., USA), 0.1 mg/ml salmon sperm DNA (5 Prime Eppendorf/Brinkmann, Westbury, N.Y., USA), 0.1 mg/ml E. coli tRNA (Sigma), a cocktail of 10 mM each of the specific reverse primers shown in Table 1, and standard RNA34 oligonucleotides, were applied to the filterplates, followed by incubation at 37° C. for 10 min. The filterplates were then placed over oligo(dT)-immobilized microplates (GenePlate, RNAture), and centrifuged at 2000×g for 5 min at 4° C. Following overnight storage at 4° C., the microplates were washed with 100 μl plain lysis buffer 3 times, followed by 150 μl of wash buffer (0.5 M NaCl, 10 mM Tris, pH 7.4, 1 mM EDTA) 3 times at 4° C. The cDNA was directly synthesized in each well by adding 30 μl buffer containing 1× RT-butter, 1.25 mM each of dNTP, 4 units rRNasin, and 80 units of MMLV reverse transcriptase (Promega) (without primers), and incubation at 37° C. for 2 hours. The specific primer-primed cDNA existed in solution, and oligo(dT)-primed cDNA stayed immobilized in the microplate. For TaqMan PCR (FIGS. 1, 3, 4), the resultant 4 μl cDNA solution was directly transferred to 384-well PCR plates, to which 5 μl of TaqMan universal master mix (ABI) and 1 μl oligonucleotide cocktail (15 μM each of forward and reverse primer, and 3-6 μM TaqMan probe) were applied, and PCR was conducted in PRISM 7900HT (ABI), with one cycle of 95° C. for 10 min followed by 45 cycles of 95° C. for 30 sec, 55° C. for 30 sec, and 60° C. for 1 min. […] The Ct was determined by analytical software (SDS, ABI).
Description for human whole blood: Using a commercial kit (Puregene, Gentra, Minneapolis, Minn.), genomic DNA was purified from 300 μl each of whole blood with or without treatments. DNA was then analyzed in 3.5% agarose (3:1 NuSieve:agarose, FMC, Rockland, Me.) gel electrophoresis, stained with 0.5 μg/ml ethidium bromide, and photographic images were recorded by AlphaImager (Alpha Innotech, San Leandro, Calif.).
To mimic physiological conditions, whole blood was used, without isolating mononuclear cells. […] After 1 day of incubation, genomic DNA was extracted, and DNA fragmentation was analyzed by agarose gel electrophoresis using ethidium bromide staining.
Genomic DNA was purified from 300 μl each of whole blood with or without treatments, using a commercial kit (Puregene, Gentra, Minneapolis, Minn.). DNA was then analyzed in 3.5% agarose (3:1 NuSieve:agarose, FMC, Rockland, Me.) gel electrophoresis, stained with 0.5 μg/ml ethidium bromide, and photographic images were recorded by Alpha-Iimager (Alpha Innotech, San Leandro, Calif.).
Description for p21 mRNA, Jurkat cells: Blood was obtained from healthy adults and from two leukemic non-Hodgkin's malignant lymphoma patients. […] For human experiments, blood aliquots were stimulated with various anti-cancer drugs at 37° C. for 2 hours, then both p21 and BAX mRNA were measured. The anti-cancer drugs used in this study were clinical drugs, and the concentration of each drug was adjusted to typical blood levels 3-6 hours after intravenous administration.

Take `COc1cc([C@@H]2c3cc4c(cc3[C@@H](O[C@@H]3O[C@@H]5CO[C@@H](C)O[C@H]5[C@H](O)[C@H]3O)[C@H]3COC(=O)[C@H]23)OCO4)cc(OC)c1O` [VP-16, etoposide]: the “BAX mRNA induction” value in the test with BAX mRNA is reported as “induced”. For the same compound, the PUMA induction entry with PUMA mRNA (AML patient, drug concentrations of b94 (FIG. 8B)) was “huge induction”. Also, the PUMA response entry in the test with PUMA mRNA (NHL patient, drug concentrations (FIG. 8C)) is “strong PUMA response”. Further, the “drug sensitivity (p21 mRNA expression)” value in the test on p21 mRNA, Jurkat cells was “resistant”. In addition, in test [1], the platelet count result was “increased substantially”. In addition, the NOXA induction entry in the test on NOXA mRNA is listed as “induced in all individuals”.
For the compound bleomycin [BLM], the “fragmentation of DNA” value in the test with human whole blood is given as “confirmed; also recorded: fragmentation of DNA was observed”. For the same compound, the NOXA induction result in the test with NOXA mRNA is on record as “induced in all individuals”.
